In US4331597A, “Penicillin compounds” (Meiji Seika Kaisha, Ltd., priority 1979, dated 1982):
≈ marks a conversion by molar mass, not a printed value. Counter-ions that a name gives are not always drawn.

Columns and labels:
Assay in all cases: Minimum inhibitory concentration test, agar dilution method (plate)
Assay type in all cases: cell-based
[1] = test system: Proteus morganii 1510 (CSase); details: Morganella morganii
Procedure: (§1) Antimicrobial test (i.e., minimum inhibitory concentration test) on compounds obtained according to this invention was conducted according to the Japan chemotherapy method, using Apalcillin (PC-904) for comparison purposes.
(§2) Minimum Inhibitory Concentration(γ/ml)
(§3) in Agar Dilution Method (Plate)

[2] = test system: Pseudomonas aeruginosa E-2; details: E2
Procedure: as §1, §2, §3

[3] = test system: Pseudomonas capacia M-0501; details: M0501
Procedure: as §1, §2, §3

[4] = test system: Escherichia coli GN206
Procedure: as §1, §2, §3

[5] = test system: Serratia species GN629 (CSase)
Procedure: as §1, §2, §3

[6] = test system: Escherichia coli 255
Procedure: as §1, §2, §3

[7] = test system: Klebsiella pneumoniae GN69
Procedure: as §1, §2, §3

[8] = test system: Pseudomonas cepacia M-0513; details: Burkholderia cepacia, M0513
Procedure: as §1, §2, §3

[9] = test system: Staphylococcus aureus Smiths-424; details: SMITHS424
Procedure: as §1, §2, §3

[10] = test system: Streptococcus faecalis ATCC6633; details: Enterococcus faecalis
Procedure: as §1, §2, §3

[11] = test system: Serratia marcescens No. 1
Procedure: as §1, §2, §3

[12] = test system: Pseudomonas aeruginosa M-0002; details: M0002
Procedure: as §1, §2, §3

[13] = test system: Staphylococcus aureus 209PJC-1; details: 209PJC1
Procedure: as §1, §2, §3

[14] = test system: Pseudomonas maltophilia 602; details: Stenotrophomonas maltophilia
Procedure: as §1, §2, §3

[15] = test system: Proteus vulgaris OX19
Procedure: as §1, §2, §3

[16] = test system: Citrobacter freundii GN346 (CSase)
Procedure: as §1, §2, §3

SMILES	MIC [1] [µg/mL]	MIC [2] [µg/mL]	MIC [3] [µg/mL]	MIC [4] [µg/mL]	MIC [5] [µg/mL]	MIC [6] [µg/mL]	MIC [7] [µg/mL]	MIC [8] [µg/mL]	MIC [9] [µg/mL]	MIC [10] [µg/mL]	MIC [11] [µg/mL]	MIC [12] [µg/mL]	MIC [13] [µg/mL]	MIC [14] [µg/mL]	MIC [15] [µg/mL]	MIC [16] [µg/mL]
COc1ccc(COc2ccc(-c3ccc(C(=O)N[C@@H](C(=O)N[C@@H]4C(=O)N5[C@@H]4SC(C)(C)[C@@H]5C(=O)O)c4ccc(O)cc4)c(=O)[nH]3)cc2OC)cc1OC [Example 3, 6-[4-(3,4-dimethoxybenzyloxy)-3-methoxyphenyl]-1,2-dihydro-2-oxonicotinyl amoxycillin]	50 (≈ 65.9 µM)	6.25 (≈ 8.24 µM)	3.13 (≈ 4.12 µM)	1.56 (≈ 2.06 µM)	6.25 (≈ 8.24 µM)	6.25 (≈ 8.24 µM)	25 (≈ 32.9 µM)	3.13 (≈ 4.12 µM)	0.2 (≈ 0.264 µM)	3.13 (≈ 4.12 µM)	1.56 (≈ 2.06 µM)	3.13 (≈ 4.12 µM)	0.39 (≈ 0.514 µM)	25 (≈ 32.9 µM)	0.39 (≈ 0.514 µM)	1.56 (≈ 2.06 µM)
CC1(C)S[C@@H]2[C@H](NC(=O)[C@H](NC(=O)c3cnc4cccnc4c3O)c3ccccc3)C(=O)N2[C@H]1C(=O)O [PC-904, reference compound]	100 (≈ 192 µM)	1.56 (≈ 2.99 µM)	12.5 (≈ 24 µM)	25 (≈ 47.9 µM)	25 (≈ 47.9 µM)	50 (≈ 95.9 µM)	50 (≈ 95.9 µM)	25 (≈ 47.9 µM)	0.39 (≈ 0.748 µM)	6.25 (≈ 12 µM)	1.56 (≈ 2.99 µM)	0.78 (≈ 1.5 µM)	0.39 (≈ 0.748 µM)	50 (≈ 95.9 µM)	0.39 (≈ 0.748 µM)	12.5 (≈ 24 µM)
COc1ccc(-c2ccc(C(=O)N[C@@H](C(=O)N[C@@H]3C(=O)N4[C@@H]3SC(C)(C)[C@@H]4C(=O)O)c3ccc(O)cc3)c(=O)[nH]2)cc1OC [Example 1, sodium salt of 6-(3,4-dimethoxyphenyl)-1,2-dihydro-2-oxonicotinylamoxycillin]	100	3.13	12.5	3.13	6.25	12.5	25	12.5	0.39	3.13	0.78	0.78	0.39	12.5	0.39	6.25
